Experiments:
[1] = Metabolic stability in cynomolgus monkey liver microsomes (CLM); details: male, pooled liver microsomes, pH 7.4
[2] = molecular target: T1, 5-HT2A receptor (Homo sapiens (Human), UniProt P28223); assay: 5-HT2A receptor radioligand binding ([3H]ketanserin); details: for Ki: 1 nM [3H]ketanserin, HEK293 stable cell line
Procedure: Methods. Affinity of the test compounds for the 5-HT2A receptor was determined in radioligand binding experiments with [^3H]ketanserin by WuXi AppTec (Hong Kong) Limited, using methods adapted from the literature and under conditions described in Table 2.

[3] = test system: C57BL/6 mice; assay: Head twitch response (HTR) in mice; format: in vivo; details: for Average HTR (SEM): counted for 20 min; for ED50: Mus musculus, sc, Gaussian dose-response fit, read-out: HTR ED50 (95% CI); for maximal HTR effect: s.c., maximal effect over doses
Procedure: Animals. Adult male C57BL/6 mice, aged 8 weeks (body weight 20-25 g) were used in these experiments. Animals were housed under controlled temperatures and 12-hour light/dark cycles (lights on between 07:00-19:00 h), with ad libitum food and water. All efforts were made to minimize suffering.
Drugs and Drug Administration. Compound 1 was synthesized as described above. […] All compounds were used as the HCl salts, dissolved in a vehicle consisting of normal saline, and administered subcutaneously (s.c.) in a volume of 10 mL/kg. […] Group size was N=6 animals/group.
Procedure. Mice were administered one dose of a test drug (or vehicle) s.c. and immediately placed into a small open field for behavioral observation.
Statistical Analysis. The data points shown in Table 4 are the mean±standard error of the mean (SEM). Dose-response curves were fit and ED50s calculated using the Gaussian 2020 function in GraphPad Prism 9.

[4] = molecular target: 5-HT1A receptor (Homo sapiens (Human), UniProt P08908); assay: FLIPR Ca2+ flux agonist assay at 5-HT1A; format: cell-based
Procedure: (§1) The functional activity of Compound 1 at several serotonin (5-HT) receptor subtypes (5-HT2A, 5-HT2B, and 5-HT1A) was determined in Ca^2+ flux assays, with the results summarized in Table 3.
(§2) Functional Assays at 5-HT2A, 5-HT2B, and 5-HT1A Receptors. Agonist activity at 5-HT2A, 5-HT2B, and 5-HT1A receptors was determined using a FLIPR Ca^2+ flux assay at WuXi AppTec (Hong Kong) Limited according to their standard protocols. Briefly, stably transfected cells expressing the receptor of interest (HEK293 for 5-HT2A and 5-HT2B; CHO cells for 5-HT1A) were grown and plated in a 384 well plate and incubated at 37° C. and 5% CO2 overnight. A solution of 250 mM probenecid in 1 mL FLIPR assay buffer was prepared fresh. This was combined with a fluorescent dye (Fluo-4 Direct™) to make a final assay concentration of 2.5 mM. Compounds were diluted 1:3.16 for 10 points and 750 nL was added to a 384 well compound plate using ECHO along with 30 μL assay buffer. The fluorescent dye was then added to the assay plate along with assay buffer to a final volume of 40 μL. The cell plate was incubated for 50 min at 37° C. and 5% CO2 and placed into the FLIPR Tetra along with the compound plate. 10 μL of references and compounds were then transferred from the compound plate into the cell plate and the fluorescent signal was read.

[5] = molecular target: T1, 5-HT2A receptor; assay: FLIPR Ca2+ flux agonist assay at 5-HT2A; format: cell-based
Procedure: as §1, §2

[6] = molecular target: 5-HT2B receptor (Homo sapiens (Human), UniProt P41595); assay: FLIPR Ca2+ flux agonist assay at 5-HT2B; format: cell-based
Procedure: as §1, §2

[7] = Ca2+ flux, HEK293 cells, max dose

Sequence of 5-HT2B receptor (P41595 whole entry): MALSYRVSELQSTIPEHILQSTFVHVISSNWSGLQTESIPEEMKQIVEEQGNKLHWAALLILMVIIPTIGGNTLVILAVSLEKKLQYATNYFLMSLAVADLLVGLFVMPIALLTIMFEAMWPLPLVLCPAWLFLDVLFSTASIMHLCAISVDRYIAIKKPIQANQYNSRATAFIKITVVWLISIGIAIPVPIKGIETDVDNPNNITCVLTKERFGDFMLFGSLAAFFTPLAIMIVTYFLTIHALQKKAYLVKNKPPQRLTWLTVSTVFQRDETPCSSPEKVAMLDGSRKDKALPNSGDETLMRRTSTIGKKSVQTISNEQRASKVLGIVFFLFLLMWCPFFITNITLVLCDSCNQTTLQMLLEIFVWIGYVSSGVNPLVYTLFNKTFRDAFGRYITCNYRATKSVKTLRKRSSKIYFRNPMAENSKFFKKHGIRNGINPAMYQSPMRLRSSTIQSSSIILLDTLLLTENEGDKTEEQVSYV

SMILES | half-life at 1 μM [1] [h] | microsomal CLint at 1 μM [1] [µL/min/mg] | Ki [2] [nM] | Average HTR (SEM) ([3]; 0.316 mg/kg s.c.) | Average HTR (SEM) ([3]; 1 mg/kg s.c.) | Average HTR (SEM) ([3]; 3.16 mg/kg s.c.) | Average HTR (SEM) ([3]; 10 mg/kg s.c.) | Average HTR (SEM) ([3]; 31.6 mg/kg s.c.) | ED50 [3] [mg/kg] | maximal HTR effect [3] [head twitches/20 min] | binding affinity at the 5-HT2A receptor (in words) ([2]; compared to closely related compounds) | Average HTR (SEM) ([3]; 0.1 mg/kg s.c.) | EC50 [4] [nM] | 5-HT1A % Act @ Max Dose ([4]; Ca2+ flux, CHO cells, max dose) [%] | EC50 [5] [nM] | selectivity among 5-HT receptors (in words) ([5]; 5-HT2A over 5-HT2B and 5-HT1A, Ca2+ flux) | agonist activity at the 5-HT2A receptor (in words) ([5]; Ca2+ flux) | 5-HT2A % Act @ Max Dose [5, 7] [%] | EC50 [6] [nM] | 5-HT2B % Act @ Max Dose [6, 7] [%]
COc1cc(CCN)c(OC)cc1Br [Compound 2C-B] | 1.25 | 18.4 | – | – | – | – | – | – | – | – | – | – | – | – | – | – | – | – | – | –
COc1cc(C(F)(F)F)c(OC)cc1CCN [Compound 2C-TFM, 2,5-dimethoxy-4-(trifluoromethyl)phenethylamine] | – | – | 15.8 | 6.5 (0.89) | 19.2 (2.47) | 19.2 (2.37) | 17.2 (1.62) | 9.3 (1.12) | 0.43 | 19.2 | – | – | – | – | – | – | – | – | – | –
CCc1cc(OC)c(CCN)cc1OC [Compound 2C-E] | 1.31 | 17.6 | 16.7 | – | – | – | – | – | – | – | – | – | – | – | – | – | – | – | – | –
C=CCc1cc(OC)c(CCN)cc1OC [Compound 1, 2-(4-allyl-2,5-dimethoxyphenyl)ethan-1-amine] | 0.705 | 32.8 | 90.4 | 13.3 (0.49) | 23.0 (1.21) | 28.8 (1.58) | 24.3 (2.04) | – | 0.28 | 28.8 | reduced binding affinity | 8.8 (0.79) | > 100000 | 13.25 | 2.15 | selective for the 5-HT2A receptor over the 5-HT2B and 5-HT1A receptors | potent and highly efficacious agonist | 110.99 | 77.7 | 74.87
COc1cc(CC(C)N)c(OC)cc1I (stereo not drawn) [DOI, 4-iodo-2,5-dimethoxyamphetamine] | – | – | – | 13.0 (2.07) | 29.3 (2.29) | 35.6 (3.37) | 22.7 (1.52) | – | 0.43 | 35.6 | – | 5.5 (0.85) | – | – | – | – | – | – | – | –

— patent US12534425B2, “Phenalkylamines and methods of treating mood disorders” (GILGAMESH PHARMACEUTICALS, INC., priority 2020, dated 2026)
